US5705487A, “Antithrombotic agents” (priority 1995, dated 1998)
Counter-ions that a name gives are not always drawn.

What was measured:
Format in all cases: biochemical
[1] = molecular target: Human Thrombin (Homo sapiens, UniProt P00734); test: Inhibition of the amidase activity of thrombin (Kass); settings: chromogenic substrate N-benzoyl-Phe-Val-Arg-p-nitroanilide; mean over range of concentrations
[2] = test system: Human Plasma; test: Human plasma anticoagulation, thrombin time (TT); settings: concentration required to double the clotting time
Description: (§1) Dog plasma and rat plasma is obtained from conscious mixed-breed hounds (either sex, Hazelton-LRE, Kalamazoo, Mich., U.S.A.) or from anesthetized male Sprague-Dawley rats (Harlan Sprague-Dawley, Inc., Indianapolis, Ind., U.S.A.) by venipuncture into 3.8 percent citrate. Fibrinogen is prepared from in-date ACD human blood as the fraction I-2 according to previous procedures and specifications. […] Human fibrinogen is also purchased as 98 percent pure/plasmin free from American Diagnostica, Greenwich, Conn. Coagulation reagents ACTIN, Thromboplastin, and Human plasma are from Baxter Healthcare Corp., Dade Division, Miami, Fla. Bovine thrombin from Parke-Davis ([…], Mich.) is used for coagulation assays in plasma.
(§2) Coagulation assay procedures are as previously described. […] A CoAScreener coagulation instrument (American LABor, Inc.) is used for all coagulation assay measurements. The prothrombin time (PT) is measured by adding 0.05 mL saline and 0.05 mL Thromboplastin-C reagent to 0.05 mL test plasma. The activated partial thromboplastin time (APTT) is measured by incubation of 0.05 mL test plasma with 0.05 mL Actin reagent for 120 seconds followed by 0.05 mL CaCl2 (0.02M). The thrombin time (TT) is measured by adding 0.05 mL saline and 0.05 mL thrombin (10 NIH units/mL) to 0.05 mL test plasma. The compounds of Formula I are added to human or animal plasma over a wide range of concentrations to determine prolongation effects on the APTT, PT, and TT assays. Linear extrapolations are performed to estimate the concentrations required to double the clotting time for each assay.

[3] = molecular target: T1, Bovine trypsin (Bos taurus, UniProt P00760); test: Kass, trypsin chromogenic substrate assay; settings: substrate N-Benzoyl-Phe-Val-Arg-p-nitroanilide
T1 construct: Bovine trypsin is purchased from Worthington Biochemicals; purchased Worthington Biochemicals, Freehold, N.J
T1 sequence (P00760 24-246): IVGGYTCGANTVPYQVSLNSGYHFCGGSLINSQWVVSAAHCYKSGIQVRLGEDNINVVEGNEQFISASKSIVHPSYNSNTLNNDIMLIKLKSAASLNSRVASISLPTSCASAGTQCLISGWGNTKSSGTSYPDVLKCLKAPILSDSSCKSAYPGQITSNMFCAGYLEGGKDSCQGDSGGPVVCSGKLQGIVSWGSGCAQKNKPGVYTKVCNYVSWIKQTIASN

[4] = test system: Human Plasma; test: Human plasma anticoagulation, activated partial thromboplastin time (APTT); settings: concentration required to double the clotting time
Description: as §1, §2

[5] = test system: Human Plasma; test: Human plasma anticoagulation, prothrombin time (PT); settings: concentration required to double the clotting time
Description: as §1, §2

Compound	Kass × 10^6 (L/mole) Human Thrombin [1]	Kass × 10^6 (L/mole) Trypsin [3]	Human Plasma Anticoagulation 2x Clotting time TT [2]	Human Plasma Anticoagulation 2x Clotting time APTT [4]	Human Plasma Anticoagulation 2x Clotting time PT [5]
N=C(N)c1ccc(CNC(=O)[C@@H]2CCCN2C(=O)[C@H](NCC(=O)O)C2CCCCC2)cc1 [Example 86, HOOCCH2 -D-Chg-Pro-p-NHCH2 C6 H4 C(NH)NH2.HCl]	–	–	4 ng/mL	–	–
N=C(N)c1ccc(CNC(=O)[C@@H]2CCCN2C(=O)[C@@H](CC2CCCCC2)NCC(=O)O)nc1 [Example 66, HO2 CCH2 -D-Cha-Pro-2-NHCH2 -5-amidinopyridine.HCl]	120 × 10^6 L/mole	4.6 × 10^6 L/mole	7.9 ng/mL	180 ng/mL	270 ng/mL
Nc1ccc(CCNC(=O)[C@@H]2CCCN2C(=O)[C@@H](CC2CCCCC2)NCC(=O)O)cc1 [Example 63, HO2 CCH2 -D-Cha-Pro-4-NHCH2 CH2 C6 H4 NH2.HCl]	0.31 × 10^6 L/mole	–	680 ng/mL	–	–
1-Piq-Pro-p-NHCH2 C6 H4 C(NH)NH2.2HCl [Example 18]	–	–	7 ng/mL	–	–
N=C(N)C1CCC(CNC(=O)[C@@H]2CCCN2C(=O)[C@@H](CC2CCCCC2)NCC(=O)O)NC1 (stereo partly drawn) [Example 67, HO2 CCH2 -D-Cha-Pro-2-NHCH2 -5-amidinopiperidine.HCl]	11 × 10^6 L/mole	–	34. ng/mL	1,800 ng/mL	1,300 ng/mL
Nc1ccc(CNC(=O)[C@@H]2CCCN2C(=O)[C@@H](CC2CCCCC2)NCC(=O)O)cc1 [Example 62, HO2 CCH2 -D-Cha-Pro-4-NHCH2 C6 H4 NH2.HCl]	7.6 × 10^6 L/mole	–	54 ng/mL	–	–
HOOCCH2 -D-Phe-Pro-p-NHCH2 C6 H4 C(NH)NH2.HCl [Example 46]	–	–	2. ng/mL	–	–
Cl.N=C(N)c1cc(CNC(=O)[C@@H]2CCCN2C(=O)[C@@H](CC2CCCCC2)NCC(=O)O)cs1 [Example 65, HO2 CCH2 -D-Cha-Pro-4-NHCH2 -2-amidinothiophene.HCl]	4,500 × 10^6 L/mole	–	1 ng/mL	48 ng/mL	–
Cl.N=C(N)C1=CNC(CNC(=O)[C@@H]2CCCN2C(=O)[C@@H](CC2CCCCC2)NCC(=O)O)CC1 (stereo partly drawn) [Example 68, HO2 CCH2 -D-Cha-Pro-2-NHCH2 -5-amidino-5,6-dehydro-piperidine.HCl]	600 × 10^6 L/mole	–	4. ng/mL	49 ng/mL	190 ng/mL
CCS(=O)(=O)N[C@H](CC1CCCCC1)C(=O)N1CCC[C@H]1C(=O)NCc1ccc(C(=N)N)cc1.Cl [Example 80, EtSO2 -D-Cha-Pro-4-NHCH2 C6 H4 C(NH)NH2.HCl]	–	90. × 10^6 L/mole	4 ng/mL	40 ng/mL	130 ng/mL
EtSO2 -D-Phe-Pro-p-NHCH2 -C6 H4 C(=NH)NH2.HCl [Example 23]	–	–	7 ng/mL	–	–
CCS(=O)(=O)N[C@@H](C(=O)N1[C@H](C(=O)NCc2ccc(C(=N)N)cc2)C[C@@H]2CCCC[C@@H]21)c1ccccc1 (relative stereo) [Example 44, EtSO2 -Phg-cis-Ohi-p-NHCH2 C6 H4 C(NH)NH2.HCl]	–	–	4. ng/mL	–	–
Nc1ccc(CNC(=O)[C@@H]2CCCN2C(=O)[C@@H](CC2CCCCC2)NCC(=O)O)cc1F [Example 77, HO2 CCH2 -D-Cha-Pro-4-NHCH2 -2-F-aniline.HCl]	11 × 10^6 L/mole	–	53 ng/mL	1,600 ng/mL	890 ng/mL

Now from value to compound, other results behind:

Kass × 10^6 (L/mole) Human Thrombin [1]	Kass × 10^6 (L/mole) Trypsin [3]	Compound	Human Plasma Anticoagulation 2x Clotting time TT [2]	Human Plasma Anticoagulation 2x Clotting time APTT [4]	Human Plasma Anticoagulation 2x Clotting time PT [5]
340 × 10^6 L/mole	3.7 × 10^6 L/mole	Cl.N=C(N)c1ccc(CNC(=O)[C@@H]2CCCN2C(=O)[C@@H](CC2CCCCC2)NCC(=O)O)nn1 [Example 69, HO2 CCH2 -D-Cha-Pro-3-NHCH2 -6-amidinopyridazine.HCl]	5. ng/mL	110 ng/mL	220 ng/mL
130 × 10^6 L/mole	7.7 × 10^6 L/mole	CS(=O)(=O)CC(=O)N[C@H](CC1CCCCC1)C(=O)N1CCC[C@H]1C(=O)NCc1ccc(C(=N)N)cc1 [Example 92, MeSO2 CH2 CO-D-Cha-Pro-P-NHCH2 C6 H4 C(NH)NH2.HCl]	8.9 ng/mL	210 ng/mL	340 ng/mL
0.45 × 10^6 L/mole	–	Cl.Nc1ccc(CCNC(=O)[C@@H]2CCCN2C(=O)[C@@H](CC2CCCCC2)NCC(=O)O)cn1 [Example 75, HO2 CCH2 -D-Cha-Pro-5-NHCH2 CH2 -2-aminopyridine.HCl]	–	–	–
2,300 × 10^6 L/mole	280 × 10^6 L/mole	Cl.N=C(N)c1cc(F)c(CNC(=O)[C@@H]2CCCN2C(=O)[C@@H](CC2CCCCC2)NCC(=O)O)c(F)c1 [Example 72, HO2 CCH2 -D-Cha-Pro-4-NHCH2 -3,5-F2 -benzamidine.HCl]	1 ng/mL	160 ng/mL	160 ng/mL
265 × 10^6 L/mole	30.8 × 10^6 L/mole	N=C(N)c1ccc(CNC(=O)[C@@H]2CCCN2C(=O)[C@@H](CC2CCCCC2)NCCCC(=O)O)cc1 [Example 85, HOOCCH2 CH2 CH2 -D-Cha-Pro-p-NHCH2 C6 H4 C(NH)NH2.HCl]	4.9 ng/mL	100 ng/mL	197 ng/mL
2.4 × 10^6 L/mole	0.03 × 10^6 L/mole	CCS(=O)(=O)N[C@H](CC1CCCCC1)C(=O)N1CCC[C@H]1C(=O)NCc1ccnc(N)c1.Cl [Example 83, EtSO2 -D-Cha-Pro-4-NHCH2 -2-aminopyridine.HCl]	91 ng/mL	1,000 ng/mL	1,300 ng/mL
1,400 × 10^6 L/mole	240. × 10^6 L/mole	Cl.N=C(N)c1ccc(CNC(=O)[C@@H]2CCCN2C(=O)[C@@H](CC2CCCCC2)NCC(=O)O)c(F)c1 [Example 71, HO2 CCH2 -D-Cha-Pro-4-NHCH2 -3-F-benzamidine.HCl]	1 ng/mL	89 ng/mL	150 ng/mL
29 × 10^6 L/mole	–	Cl.Nc1ccc(CNC(=O)[C@@H]2CCCN2C(=O)[C@@H](CC2CCCCC2)NCC(=O)O)cn1 [Example 74, HO2 CCH2 -D-Cha-Pro-5-NHCH2 -2-aminopyridine.HCl]	20 ng/mL	420 ng/mL	350 ng/mL
28 × 10^6 L/mole	–	Cl.Nc1cc(CNC(=O)[C@@H]2CCCN2C(=O)[C@@H](CC2CCCCC2)NCC(=O)O)ccn1 [Example 73, HO2 CCH2 -D-Cha-Pro-4-NHCH2 -2-aminopyridine.HCl]	21 ng/mL	340 ng/mL	330 ng/mL
5.0 × 10^6 L/mole	–	CCS(=O)(=O)N[C@H](CC1CCCCC1)C(=O)N1CCC[C@H]1C(=O)NCc1ccc(N)cc1F.Cl [Example 82, EtSO2 -D-Cha-Pro-4-NHCH2 -3-F-C6 H3 NH2.HCl]	130 ng/mL	3,800 ng/mL	3,000 ng/mL
